# Experiment: Treatments of Example 5 repeated with corticoid-free bases containing only chloramine T
# Type: in vivo
# Conditions: powder added to the bath water
# Description: Instead of adhesive salve Volon A with added chloramine T, a normal cooling salve was prepared—“unguentum leniens” which merely contained chloramine T-powder (2% by weight) as active ingredient, but no corticoid. The success described under Example 5 was the same.
compound,measurement,value
"Cc1ccc(S(=O)(=O)NCl)cc1.[Na] [chloramine T, tosylchloramide-sodium]",treatment results compared with Example 5,comparable results

# Source: patent US7790771B1, “Use of tosylchloramide(s) for treating disease of the skin, mucous membrane, organs and tissues” (Engelhard Arzneimittel GmbH & Co., priority 1999, dated 2010)
